Measured values: patent US9078442B2, “Herbicidally and fungicidally active 3-phenylisoxazoline-5-carboxamides and 3-phenylisoxazoline-5-thioamides” (BAYER INTELLECTUAL PROPERTY GMBH, priority 2011, dated 2015)

How the values were obtained:
[1] = system: Mycosphaerella graminicola; assay: In vivo test Mycosphaerella graminicola (wheat); settings: Mycosphaerella graminicola on wheat, application rate 500 g/ha, evaluation 21-28 days after inoculation
Description: Wheat plants (cultivar: (Scipion) are cultivated in 50/50 peat pozzolan substrate at 12° C. and sprayed at the 1-leaf stage with the active compound preparation as given in Example A. After 24 hours, the plants are sprayed with a spore suspension of Mycosphaerella graminicola (500 000 spores/ml).

Peronospora parasitica = assay: In vivo test Peronospora parasitica (downy mildew on cabbage), protective; settings: evaluation 5 days after infection
Description: In vivo test Peronospora parasitica (downy mildew on cabbage) To prepare an appropriate active compound formulation, the active compound is mixed with acetone/Tween/DMSO and the mixture is diluted with water to the desired concentration. Cabbage plants are cultivated in 50/50 peat/pozzolan soil in small pots at 18-20° C. and sprayed at the cotyledon stage at the respective stated application rates to test for protective activity. Control plants were treated in the same manner, but using an aqueous solution without any active compounds. 24 hours after the spraying, the plants were sprayed with a spore suspension of Peronospora parasitica (50 000 spores/ml). The plants were placed in a cabin at 20° C. in a humid atmosphere for 5 days.

Botrytis cinerea = assay: In vivo test Botrytis cinerea (gray mold on cucumbers); settings: Botrytis cinerea on cucumber, evaluation 5-7 days after infection
Description: Cucumber plants (Vert petit de Paris) are cultivated in 50/50 peat pozzolan substrate at 20-25° C. and sprayed at the Z16 stage with the active compound preparation given in Example 1. After 24 hours, the upper sides of the leaves of the plants are sprayed with a spore suspension of Botrytis cinerea (150 000 spores/ml). The spores of a 15-day old culture are collected and suspended in a nutrient solution consisting of • 20 g/l of gelatin; • 50 g/l of D-fructose; • 2 g/l of NH4NO3; • 1 g/L of KH2PO4. The inoculated cucumber plants are placed at 15-11° C. (day/night) and at 80% relative atmospheric humidity for 5-7 days.

Structure (SMILES)	Activity [%] (efficacy) [1]	Activity [%] (efficacy) (Peronospora parasitica; application rate 500 g/ha)	further results
CC1(C(=O)NCC2CCCO2)CC(c2cc(Cl)cc(Cl)c2)=NO1 (mixture of isomers) [Example 6.470]	100	71	
CCn1cc(NC(=O)C2(C)CC(c3cc(Cl)cc(Cl)c3)=NO2)c(C)n1 (stereo not shown) [Example 1.017]	88		
COC(=O)Cc1cccc(NC(=O)C2(C)CC(c3cc(Cl)cc(Cl)c3)=NO2)c1 (stereo not shown) [Example 1.035]	91		Activity [%] (efficacy) (Botrytis cinerea; application rate 500 g/ha): 89%
CC1(C(=O)Nc2cccc(CC(=O)O)c2)CC(c2cc(Cl)cc(Cl)c2)=NO1 (stereo not shown) [Example 1.036]	73		
CCOC(=O)Cc1ccc(NC(=O)C2(C)CC(c3cc(Cl)cc(Cl)c3)=NO2)cc1 (stereo not shown) [Example 1.057]	91		
COC(=O)c1ccc(NC(=O)C2(C)CC(c3cc(Cl)cc(Cl)c3)=NO2)cc1 (stereo not shown) [Example 1.060]			Activity [%] (efficacy) (Botrytis cinerea; application rate 500 g/ha): 100%
CC1(C(=O)Nc2ccc(C(=O)O)cc2)CC(c2cc(Cl)cc(Cl)c2)=NO1 (stereo not shown) [Example 1.064]	75	95	Activity [%] (efficacy) (Botrytis cinerea; application rate 500 g/ha): 100%
Cc1nn(C)c(C)c1CNC(=O)C1(C)CC(c2cc(Cl)cc(Cl)c2)=NO1 (stereo not shown) [Example 1.108]		100	
Cc1nn(C)cc1CNC(=O)C1(C)CC(c2cc(Cl)cc(Cl)c2)=NO1 (stereo not shown) [Example 1.116]		100	
Cc1cc(CNC(=O)C2(C)CC(c3cc(F)cc(F)c3)=NO2)n(C)n1 (stereo not shown) [Example 1.120]		99	
Cc1c(CNC(=O)C2(C)CC(c3cc(Cl)cc(Cl)c3)=NO2)cnn1C (stereo not shown) [Example 1.138]	75	98	
CCn1cc(CNC(=O)C2(C)CC(c3cc(C)cc(Cl)c3)=NO2)c(C)n1 (stereo not shown) [Example 1.181]	85	100	Activity [%] (efficacy) (Botrytis cinerea; application rate 500 g/ha): 70%
CCn1cc(CNC(=O)C2(C)CC(c3cc(C(F)(F)F)cc(C(F)(F)F)c3)=NO2)c(C)n1 (stereo not shown) [Example 1.224]	95	99	
Cn1nccc1CNC(=O)C1(C)CC(c2cc(Cl)cc(Cl)c2)=NO1 (stereo not shown) [Example 1.291]			Activity [%] (efficacy) (Peronospora parasitica; application rate 1200 g/ha): 88%
CC1(C(=O)NCc2ccccc2C(=O)O)CC(c2cc(Cl)cc(Cl)c2)=NO1 (stereo not shown) [Example 1.315]	100		
CCn1cc(CNC(=O)C2(C)CC(c3cc(Cl)cc(Cl)c3)=NO2)c(Cl)n1 (stereo not shown) [Example 1.339]	85	100	
CC(C)n1cc(CNC(=O)C2(C)CC(c3cc(F)cc(F)c3)=NO2)c(Cl)n1 (stereo not shown) [Example 1.340]	88	97	
CC(C)n1cc(CNC(=O)C2(C)CC(c3cccc(F)c3)=NO2)c(Cl)n1 (stereo not shown) [Example 1.341]		95	
CC(C)n1cc(CNC(=O)C2(C)CC(c3cc(Cl)cc(Cl)c3)=NO2)c(Cl)n1 (stereo not shown) [Example 1.343]	92	99	
CC1(C(=O)NCc2nc(C3CC3)no2)CC(c2cc(Cl)cc(Cl)c2)=NO1 (stereo not shown) [Example 1.352]		83	
Cc1n[nH]cc1CNC(=O)C1(C)CC(c2cc(F)cc(F)c2)=NO1 (stereo not shown) [Example 1.363]		71	
CC1(C(=O)NCc2nc(C(F)(F)F)cs2)CC(c2cc(Cl)cc(Cl)c2)=NO1 (stereo not shown) [Example 1.379]		96	
Cc1cc(CNC(=O)C2(C)CC(c3cc(Cl)cc(Cl)c3)=NO2)no1 (stereo not shown) [Example 1.421]	87		
CC1(C(=O)NCc2ccncc2)CC(c2cc(Cl)cc(Cl)c2)=NO1 (stereo not shown) [Example 1.458]			Activity [%] (efficacy) (Peronospora parasitica; application rate 1200 g/ha): 81%
CC1(C(=O)NCc2ncccn2)CC(c2cc(Cl)cc(Cl)c2)=NO1 (stereo not shown) [Example 1.459]	100		
CC1(C(=O)NCCc2ccccn2)CC(c2cc(Cl)cc(Cl)c2)=NO1 (stereo not shown) [Example 1.676]		85	

Structure (SMILES)	Activity [%] (efficacy) [1]	Activity [%] (efficacy) (Peronospora parasitica; application rate 500 g/ha)	further results
CC1(C(=O)NCCCn2cccn2)CC(c2cc(Cl)cc(Cl)c2)=NO1 (stereo not shown) [Example 1.903]	97	85	
CCC1(C(=O)Nc2cc(C)nn2C)CC(c2cc(Cl)cc(Cl)c2)=NO1 (stereo not shown) [Example 2.003]			Activity [%] (efficacy) (Peronospora parasitica; application rate 1200 g/ha): 90%
CCn1cc(CNC(=O)C2(CC)CC(c3cc(Cl)cc(Cl)c3)=NO2)c(C)n1 (stereo not shown) [Example 2.163]	96	100	
CCCn1cc(CNC(=O)C2(CC)CC(c3cc(Cl)cc(Cl)c3)=NO2)c(C)n1 (stereo not shown) [Example 2.257]	79	99	
CCn1cc(CNC(=O)C2(C(F)(F)F)CC(c3cc(Cl)cc(Cl)c3)=NO2)c(C)n1 (stereo not shown) [Example 3.161]		100	
CCn1cc(CNC(=O)C2(C(F)(F)F)CC(c3ccc(F)c(Cl)c3)=NO2)c(C)n1 (stereo not shown) [Example 3.170]		94	
CCn1cc(CNC(=O)C2(COC)CC(c3cc(Cl)cc(Cl)c3)=NO2)c(C)n1 (stereo not shown) [Example 5.029]		87	
CNC(=O)C1(C)CC(c2cc(Br)cc(Br)c2)=NO1 (stereo not shown) [Example 6.022]	98		
Cc1cc(Cl)cc(C2=NOC(C)(C(=O)NC3CC3)C2)c1 (stereo not shown) [Example 6.072]	98		
COCC#CC(C)(C)NC(=O)C1(C)CC(c2cc(Cl)cc(Cl)c2)=NO1 (stereo not shown) [Example 6.115]		100	
CC(C)NC(=O)C1(C)CC(c2cc(Br)cc(C(F)(F)F)c2)=NO1 (stereo not shown) [Example 6.184]	100		
CC(C)NC(=O)C1(C)CC(c2cc(F)cc(Cl)c2)=NO1 (stereo not shown) [Example 6.190]			Activity [%] (efficacy) (Peronospora parasitica; application rate 1200 g/ha): 100%
COc1cc(Cl)cc(C2=NOC(C)(C(=O)NC(C)C)C2)c1 (stereo not shown) [Example 6.191]			Activity [%] (efficacy) (Botrytis cinerea; application rate 1200 g/ha): 100%
Cc1cc(Cl)cc(C2=NOC(C)(C(=O)NC(C)C)C2)c1 (stereo not shown) [Example 6.192]	97	96	
Cc1cc(Cl)cc(C2=NOC(C)(C(=O)NCC(F)(F)F)C2)c1 (stereo not shown) [Example 6.386]	100		
CCNC(=O)C1(C)CC(c2cc(C)cc(Cl)c2)=NO1 (stereo not shown) [Example 6.412]	100		
CC1(C(=O)NCC2CCCCC2)CC(c2cc(Cl)cc(Cl)c2)=NO1 (stereo not shown) [Example 6.430]	81		
CCOP(=O)(CNC(=O)C1(C)CC(c2cc(Cl)cc(Cl)c2)=NO1)OCC (stereo not shown) [Example 6.433]		100	
CCOC(=O)C(C)CNC(=O)C1(C)CC(c2cc(Cl)cc(Cl)c2)=NO1 (stereo not shown) [Example 6.480]	88		
CCOC(=O)CCNC(=O)C1(C)CC(c2cc(Cl)cc(Cl)c2)=NO1 (stereo not shown) [Example 6.566]	98		
CC(C)(C)OC(=O)CCNC(=O)C1(C)CC(c2cc(Cl)cc(Cl)c2)=NO1 (stereo not shown) [Example 6.656]	98	92	
CCOCCCNC(=O)C1(C)CC(c2cc(Cl)cc(Cl)c2)=NO1 (stereo not shown) [Example 6.681]			Activity [%] (efficacy) (Peronospora parasitica; application rate 1200 g/ha): 97%
CNC(=O)C1(C(F)(F)F)CC(c2cc(Cl)cc(Cl)c2)=NO1 (stereo not shown) [Example 8.025]		100	
O=C(NC1CC1)C1(C(F)(F)F)CC(c2cc(Cl)cc(Cl)c2)=NO1 (stereo not shown) [Example 8.052]			Activity [%] (efficacy) (Peronospora parasitica; application rate 1200 g/ha): 100%
CC(C)NC(=O)C1(C2CC2)CC(c2cc(Cl)cc(Cl)c2)=NO1 (stereo not shown) [Example 10.032]			Activity [%] (efficacy) (Peronospora parasitica; application rate 1200 g/ha): 96%
